Results reported in PubChem BioAssay AID1918930 (Molecular Pharmacology Branch, DTP, NCI, 2023).
Several values for one entry are separate records, joined by “and”; a condition that tells them apart may be missing. Equal entries are not always repeated.

System: 233499-124-R-J3-PDC complex spheroid viability, % test/control
Test: Anticancer human tumor 233499-124-R-J3-PDC patient-derived colon adenocarcinoma cell line growth inhibition
Conditions: for viability, T/C: stronger effect = lower value
How it was run: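 Multicellular complex spheroids of tumor cells with human endothelial cells (HUVEC) and mesenchymal stem cells; the LSD1 inhibitor iadademstat was combined with standard-of-care or investigational agents. Top concentration at or near clinical Cmax, half-log dilutions; final DMSO ≤0.25%.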

[1] = curve of first compound, second compound 0.1 µM
[2] = curve of first compound, second compound 0.316 µM
[3] = curve of first compound, second compound 1 µM
[4] = curve of first compound, second compound 3.16 µM
[5] = curve of first compound, second compound 10 µM
[6] = second compound 0.1 µM, first compound 0.00949 µM
[7] = second compound 0.1 µM, first compound 0.03 µM
[8] = second compound 0.1 µM, first compound 0.0949 µM
[9] = second compound 0.1 µM, first compound 0.3 µM
[10] = second compound 0.316 µM, first compound 0.00949 µM
[11] = second compound 0.316 µM, first compound 0.03 µM
[12] = second compound 0.316 µM, first compound 0.0949 µM
[13] = second compound 0.316 µM, first compound 0.3 µM
[14] = second compound 1 µM, first compound 0.00949 µM
[15] = second compound 1 µM, first compound 0.03 µM
[16] = second compound 1 µM, first compound 0.0949 µM
[17] = second compound 1 µM, first compound 0.3 µM
[18] = second compound 3.16 µM, first compound 0.00949 µM
[19] = second compound 3.16 µM, first compound 0.03 µM
[20] = second compound 3.16 µM, first compound 0.0949 µM
[21] = second compound 3.16 µM, first compound 0.3 µM
[22] = second compound 10 µM, first compound 0.00949 µM
[23] = second compound 10 µM, first compound 0.03 µM
[24] = second compound 10 µM, first compound 0.0949 µM
[25] = second compound 10 µM, first compound 0.3 µM
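Also: spheroids exposed to agents for one week before readout.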

In the case of `Nc1ncn(C2CC(O)C(CO)S2)c(=O)n1` (stereo unspecified) + NC1CC1c1ccc(-c2cccc(O)c2)cc1, the IC50 [1] is reported as 100 nM, the IC50 [2] is reported as 102 nM and the IC50 [3] is reported as 124 nM. For the same compound, the IC50 [4] was 128 nM, the IC50 [5] was 81.5 nM and the viability, T/C (second compound 0.1 µM, first compound 0.000949 µM) was 95.5%. It also gave a viability, T/C (second compound 0.1 µM, first compound 0.003 µM) of 94.1%, a viability, T/C [6] of 117% and a viability, T/C [7] of 101%. The viability, T/C [8] was 51.2%, the viability, T/C [9] was 25.6% and the viability, T/C (second compound 0.316 µM, first compound 0.000949 µM) was 108%. The viability, T/C (second compound 0.316 µM, first compound 0.003 µM) was 96.7%, the viability, T/C [10] was 114% and the viability, T/C [11] was 114%. The viability, T/C [12] was 51.2%, the viability, T/C [13] was 31.5% and the viability, T/C (second compound 1 µM, first compound 0.000949 µM) was 85.7%. For the same compound, the viability, T/C (second compound 1 µM, first compound 0.003 µM) was 96.4%, the viability, T/C [14] was 103% and the viability, T/C [15] was 87%. The viability, T/C [16] was 57.2%, the viability, T/C [17] was 26.7% and the viability, T/C (second compound 3.16 µM, first compound 0.000949 µM) was 81%. For the same compound, the viability, T/C (second compound 3.16 µM, first compound 0.003 µM) was 86.9%, the viability, T/C [18] was 85.8% and the viability, T/C [19] was 89.1%. For the same compound, the viability, T/C [20] was 58.4%, the viability, T/C [21] was 26% and the viability, T/C (second compound 10 µM, first compound 0.000949 µM) was 80.2%. The viability, T/C (second compound 10 µM, first compound 0.003 µM) was 83.4%, the viability, T/C [22] was 81.5% and the viability, T/C [23] was 83.8%. The viability, T/C [24] was 45% and the viability, T/C [25] was 34.7%.
For `CC1(C)CCC(CN2CCN(c3ccc(C(=O)NS(=O)(=O)c4ccc(NCC5CCOCC5)c([N+](=O)[O-])c4)c(Oc4cnc5[nH]ccc5c4)c3)CC2)=C(c2ccc(Cl)cc2)C1`, the viability, T/C (compound 0.0316 µM) was 96.6% and 90.8%, the viability, T/C (compound 0.1 µM) was 93.2% and 96.6% and the viability, T/C (compound 0.316 µM) was 118% and 99.7%. The viability, T/C (compound 1 µM) was 112% and 93.5%, the viability, T/C (compound 3.16 µM) was 120% and 40.8% and the IC50 (curve of compound) was > 10000 nM and 2590 nM.
`CC[C@@]1(O)C(=O)OCc2c1cc1n(c2=O)Cc2cc3c(CN(C)C)c(O)ccc3nc2-1` + NC1CCC(NC2CC2c2ccccc2)CC1 was tested, and the IC50 [1] was greater than 100 nM, the IC50 [2] was 31.6 nM and the IC50 [3] was greater than 100 nM. For the same compound, the IC50 [4] was greater than 100 nM, the IC50 [5] was greater than 100 nM and the viability, T/C (second compound 0.1 µM, first compound 0.000316 µM) was 104%. It also gave a viability, T/C (second compound 0.1 µM, first compound 0.001 µM) of 76.6%, a viability, T/C (second compound 0.1 µM, first compound 0.00316 µM) of 79.7% and a viability, T/C (second compound 0.1 µM, first compound 0.01 µM) of 64%. The viability, T/C (second compound 0.1 µM, first compound 0.0316 µM) was 71.9%, the viability, T/C (second compound 0.1 µM, first compound 0.1 µM) was 87.9% and the viability, T/C (second compound 0.316 µM, first compound 0.000316 µM) was 93.7%. For the same compound, the viability, T/C (second compound 0.316 µM, first compound 0.001 µM) was 80.1%, the viability, T/C (second compound 0.316 µM, first compound 0.00316 µM) was 88.9% and the viability, T/C (second compound 0.316 µM, first compound 0.01 µM) was 47.5%. It also gave a viability, T/C (second compound 0.316 µM, first compound 0.0316 µM) of 54.5%, a viability, T/C (second compound 0.316 µM, first compound 0.1 µM) of 66.1% and a viability, T/C (second compound 1 µM, first compound 0.000316 µM) of 65.9%. The viability, T/C (second compound 1 µM, first compound 0.001 µM) was 63.9%, the viability, T/C (second compound 1 µM, first compound 0.00316 µM) was 50.3% and the viability, T/C (second compound 1 µM, first compound 0.01 µM) was 51.5%. For the same compound, the viability, T/C (second compound 1 µM, first compound 0.0316 µM) was 71.2%, the viability, T/C (second compound 1 µM, first compound 0.1 µM) was 63.8% and the viability, T/C (second compound 3.16 µM, first compound 0.000316 µM) was 92%. For the same compound, the viability, T/C (second compound 3.16 µM, first compound 0.001 µM) was 74.9%, the viability, T/C (second compound 3.16 µM, first compound 0.00316 µM) was 56.8% and the viability, T/C (second compound 3.16 µM, first compound 0.01 µM) was 53.6%. For the same compound, the viability, T/C (second compound 3.16 µM, first compound 0.0316 µM) was 58.8%, the viability, T/C (second compound 3.16 µM, first compound 0.1 µM) was 69.9% and the viability, T/C (second compound 10 µM, first compound 0.000316 µM) was 76.9%. The viability, T/C (second compound 10 µM, first compound 0.001 µM) was 82.9%, the viability, T/C (second compound 10 µM, first compound 0.00316 µM) was 68.4% and the viability, T/C (second compound 10 µM, first compound 0.01 µM) was 48%. It also gave a viability, T/C (second compound 10 µM, first compound 0.0316 µM) of 60.8% and a viability, T/C (second compound 10 µM, first compound 0.1 µM) of 80.7%.
`Nc1ccccc1NC(=O)c1ccc(CNC(=O)OCc2cccnc2)cc1` + NC1CC1c1ccc(-c2cccc(O)c2)cc1 was tested, and the IC50 [1] was 453 nM, the IC50 [2] was 374 nM and the IC50 [3] was 246 nM. The IC50 [4] was 387 nM, the IC50 [5] was 338 nM and the viability, T/C [6] was 80.8%. The viability, T/C [7] was 106%, the viability, T/C [8] was 100% and the viability, T/C [9] was 71.4%. For the same compound, the viability, T/C (second compound 0.1 µM, first compound 0.949 µM) was 11.4%, the viability, T/C (second compound 0.1 µM, first compound 3 µM) was 3.1% and the viability, T/C [10] was 101%. The viability, T/C [11] was 106%, the viability, T/C [12] was 93.1% and the viability, T/C [13] was 59.9%. The viability, T/C (second compound 0.316 µM, first compound 0.949 µM) was 11.3%, the viability, T/C (second compound 0.316 µM, first compound 3 µM) was 1.9% and the viability, T/C [14] was 101%. For the same compound, the viability, T/C [15] was 98.8%, the viability, T/C [16] was 75% and the viability, T/C [17] was 47.7%. The viability, T/C (second compound 1 µM, first compound 0.949 µM) was 9.92%, the viability, T/C (second compound 1 µM, first compound 3 µM) was 2.32% and the viability, T/C [18] was 84.4%. The viability, T/C [19] was 76.1%, the viability, T/C [20] was 79.8% and the viability, T/C [21] was 60.5%. For the same compound, the viability, T/C (second compound 3.16 µM, first compound 0.949 µM) was 12.9%, the viability, T/C (second compound 3.16 µM, first compound 3 µM) was 2.93% and the viability, T/C [22] was 71.4%. For the same compound, the viability, T/C [23] was 79.6%, the viability, T/C [24] was 78.2% and the viability, T/C [25] was 54.6%. For the same compound, the viability, T/C (second compound 10 µM, first compound 0.949 µM) was 8.25% and the viability, T/C (second compound 10 µM, first compound 3 µM) was 1.7%.
